From patent US20260007634A1, “PHARMACEUTICAL COMPOSITIONS FOR THE TREATMENT OF ALLERGIC DISEASES” (KINKI UNIVERSITY, priority 2022, published 2026)

What was measured:
Type in all cases: in vivo, mouse
IL-17 = assay: Serum IL-17 ELISA, food allergy mice; conditions: OVA food allergy; serum day 28; oral 10 mg/kg (dexamethasone 2 mg/kg); control 98, vehicle 875
Description: (§1) A 0.2 mL dose of 10 μg ovalbumin (OVA) and 1 mg Alum mixture was administered to 6-week-old female Balb/c mice (Japan SLC Inc.) (day 0 of the example). Alum was used as an adjuvant. Seven days later, the Balb/c mice were immunized again with a 0.2 mL injection of the above mixture. Starting on day 14, mice were orally treated with 10 mg/kg of norathyriol, 10 mg/kg of mangiferin 8a, 10 mg/kg of tofacitinib (JAK inhibitor), 2 mg/kg of dexamethasone (steroid) and 10 mg/kg of olopatadine (antihistamine) daily for 14 consecutive days. Starting on day 14, 10 mg OVA was administered orally every other day […], and the frequency of diarrhea was measured after the final administration on day 28. Note that tofacitinib, dexamethasone, and olopatadine are currently in clinical use in food allergy and were used as control drugs in this example.
Serum was collected from day 28 mice in Examples 21, and IL-17 production was measured by enzyme-linked immunosorbent assay (ELISA). This assay was performed using a mouse IL-17 ELISA kit (R&D).

BAFF = assay: Serum BAFF ELISA, allergic rhinitis mice; conditions: OVA allergic rhinitis; serum day 28; oral 10 mg/kg (dexamethasone 2 mg/kg); control 157, vehicle 1450
Description: (§2) A 0.2 mL dose of 50 μg ovalbumin (OVA) and 2 mg Alum mixture was administered to 6-week-old female Balb/c mice (Japan SLC Inc.) (day 0 of the example). Alum was used as an adjuvant. Seven days later and 14 days later, the Balb/c mice were immunized again with 0.2 mL injections of the above mixture. Starting on day 20, mice were orally treated with 10 mg/kg of norathyriol, 10 mg/kg of mangiferin 8a, 10 mg/kg of tofacitinib (JAK inhibitor), 2 mg/kg of dexamethasone (steroid) and 10 mg/kg of olopatadine (antihistamine) daily for 8 consecutive days. Starting on day 21, 400 μg OVA was administered intranasally, and nose-scratching behavior was measured on day 27. Note that tofacitinib, dexamethasone, and olopatadine are currently in clinical use in allergic rhinitis and were used as control drugs in this example.
Serum was collected from day 28 mice in Examples 6 and 7, and BAFF production was measured by enzyme-linked immunosorbent assay (ELISA). This assay was performed using a mouse BAFF ELISA kit (R&D).

IgE antibody = assay: Serum IgE antibody ELISA, bronchial asthma mice; conditions: OVA bronchial asthma; serum day 28; oral 10 mg/kg (dexamethasone 2 mg/kg); control 73, vehicle 117
Description: as §2, with “cough” for “nose-scratching behavior”
Serum was collected from day 28 mice in Examples 14, and IgE antibody production was measured by enzyme-linked immunosorbent assay (ELISA). This assay was performed using a mouse IgE antibody ELISA kit (R&D).

IL-4 = assay: Serum IL-4 ELISA, food allergy mice; conditions: OVA food allergy; serum day 28; oral 10 mg/kg (dexamethasone 2 mg/kg); control 210, vehicle 1154
Description: as §1
Serum was collected from day 28 mice in Examples 21, and IL-4 production was measured by enzyme-linked immunosorbent assay (ELISA). This assay was performed using a mouse IL-4 ELISA kit (R&D).

[1] = tested on: Balb/c mice with cedar pollinosis; assay: Nose scratching behavior, cedar pollinosis model mice; conditions: oral daily 8 days from day 20, 10 mg/kg (dexamethasone 2 mg/kg), measured day 27, vs vehicle group
Description: as §2, with “of 100” for “of 50”, “μg cedar pollen” for “μg ovalbumin (OVA)”, “and 1” for “and 2”, “21, 500” for “21, 400”, “μg cedar pollen” for “μg OVA”, “in cedar pollinosis” for “in allergic rhinitis”
(§3) The group that was just immunized with cedar pollen is called the subject group, the one that received norathyriol is called the norathyriol group, the one that received mangiferin 8a is called the mangiferin 8a group, the one that received tofacitinib is called the tofacitinib group, the one that received dexamethasone is called the dexamethasone group, and the one that received olopatadine is called the olopatadine group. Each group consisted of five animals.

[2] = tested on: Balb/c mice with ovalbumin-induced allergic rhinitis; assay: Sneezing, ovalbumin-induced allergic rhinitis mice; conditions: OVA allergic rhinitis; oral daily 8 days from day 20, 10 mg/kg (dexamethasone 2 mg/kg); measured day 27; vs vehicle group
Description: as §2, with “sneezing” for “nose-scratching behavior”
as §3, with “OVA” for “cedar pollen”

[3] = tested on: Balb/c mice with ovalbumin-induced allergic rhinitis; assay: Nose scratching behavior, ovalbumin-induced allergic rhinitis mice; conditions: OVA allergic rhinitis; oral daily 8 days from day 20, 10 mg/kg (dexamethasone 2 mg/kg); measured day 27; vs vehicle group
Description: as §2
as §3, with “OVA” for “cedar pollen”

| SMILES | amount of IL-17 (IL-17) [pg/mL] | amount of BAFF (BAFF) [pg/mL] | amount of IgE antibody (IgE antibody) [ng/mL] | amount of IL-4 (IL-4) [pg/mL] | number of nose scratches [1] | number of sneezing [2] | number of nose scratches [3] |
| --- | --- | --- | --- | --- | --- | --- | --- |
| C[C@@H]1C[C@H]2[C@@H]3CCC4=CC(=O)C=C[C@]4(C)[C@@]3(F)[C@@H](O)C[C@]2(C)[C@@]1(O)C(=O)CO [dexamethasone] | 216 | 266 | 34 | 415 |  |  |  |
| O=c1c2cc(O)c(O)cc2oc2cc(O)cc(O)c12 [norathyriol, 1,3,6,7-tetrahydroxyxanthone] | 451 | 629 | 88 | 694 | significantly decreased the number of nose scratches | significantly decreased the number of sneezing | significantly decreased the number of nose scratches |
| CN(C)CC/C=C1/c2ccccc2COc2ccc(CC(=O)O)cc21 [olopatadine] | 721 | 1691 | 126 | 1054 | significantly decreased the number of nose scratches | significantly decreased the number of sneezing | significantly decreased the number of nose scratches |
| C[C@@H]1CCN(C(=O)CC#N)C[C@@H]1N(C)c1ncnc2[nH]ccc12 [tofacitinib] | 741 | 1041 | 101 | 1015 | significantly decreased the number of nose scratches | significantly decreased the number of sneezing | significantly decreased the number of nose scratches |
